From patent US10723741B1, “DNA polymerase IIIC inhibitors and use thereof” (Acurx Pharmaceuticals, LLC, priority 2018, dated 2020)
Converted amounts (≈) assume the structure as drawn.

Key:
Format in all cases: cell-based
[1] = test system: Escherichia coli ATCC 25922; test: Broth microdilution MIC, E. coli ATCC 25922 (MHIIB w & w/o 4 mM EDTA); settings: broth microdilution, 37° C., 20 hours; for MIC: Escherichia coli, ATCC25922, without EDTA, read-out: MIC E. coli ATCC 25922; for MIC E. coli ATCC 25922 + 4 mM EDTA: with 4 mM EDTA
How it was run: (§1)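 Broth microdilution in strain-specific test medium with ~5.0×10^5 cfu/ml inoculum, 1% DMSO and two-fold compound dilutions from 64 to 0.0625 μg/ml. Plates were held 20 hours at 37° C in ambient air. S. pneumoniae colonies were grown beforehand on blood agar in 5% CO2.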

[2] = test system: Bacillus subtilis ATCC 6633; test: Broth microdilution MIC, B. subtilis ATCC 6633; settings: ATCC6633, broth microdilution, 37° C., 20 hours, read-out: MIC B. subtilis ATCC 6633
How it was run: as §1

[3] = test system: Enterococcus faecium ATCC 700221 (VRE); test: Broth microdilution MIC, E. faecium ATCC 700221 (VRE); set-up: MIC E. faecium ATCC 700221 (VRE): unit: ug/mL; settings: broth microdilution, 37° C., 20 hours; for MIC: Enterococcus faecium, read-out: MIC E. faecium ATCC 700221 (VRE)
How it was run: as §1

[4] = test system: Staphylococcus aureus NRS384 (MRSA); test: Broth microdilution MIC, S. aureus NRS384 (MRSA); settings: Staphylococcus aureus; broth microdilution, 37° C., 20 hours; read-out: MIC NRS 384 (MRSA)
How it was run: as §1

[5] = test system: Enterococcus faecalis ATCC 29212; test: Broth microdilution MIC, E. faecalis ATCC 29212; settings: ATCC29212, broth microdilution, 37° C., 20 hours, read-out: MIC E. faecalis ATCC 29212
How it was run: as §1

[6] = test system: Streptococcus pneumoniae ATCC 49619; test: Broth microdilution MIC, S. pneumoniae ATCC 49619; settings: ATCC49619, broth microdilution, 37° C., 20 hours, read-out: MIC S. pneumoniae ATCC 49619
How it was run: as §1

[7] = test system: Staphylococcus aureus ATCC 29213 (MSSA); test: Broth microdilution MIC, S. aureus ATCC 29213 (MSSA); settings: broth microdilution, 37° C., 20 hours, read-out: MIC S. aureus ATCC 29213 (MSSA)
How it was run: as §1

Structure (SMILES) | MIC [1] [µg/mL] | MIC E. coli ATCC 25922 + 4 mM EDTA [1] [µg/mL] | MIC [2] [µg/mL] | MIC [3] [µg/mL] | MIC [4] [µg/mL] | MIC [5] [µg/mL] | MIC [6] [µg/mL] | MIC [7] [µg/mL] | MIC E. faecium ATCC 700221 (VRE) [3]
Cl.O=c1[nH]c(NCc2ccc(Cl)c(Cl)c2)nc2cnn(CCN3CCC(O)CC3)c12 [Compound 65, 5-((3,4-Dichlorobenzyl)amino)-1-(2-(4-hydroxypiperidin-1-yl)ethyl)-1H-pyrazolo[4,3-d]pyrimidin-7(6H)-one hydrochloride] | > 64 | 64 | 4 | 8 | 16 | 8 | 4 | 16 | 
Cl.NC(=O)C1CCN(CCn2ncc3nc(NCc4ccc(Cl)c(Cl)c4)[nH]c(=O)c32)CC1 [Compound 66, 1-(2-(5-((3,4-Dichlorobenzyl)amino)-7-oxo-6,7-dihydro-1H-pyrazolo[4,3-d]pyrimidin-1-yl)ethyl)piperidine-4-carboxamide hydrochloride hydrochloride] | > 64 | 64 | 8 | 16 | 32 | 32 | 8 | 64 | 
Cl.O=c1[nH]c(NCc2ccc(Cl)c(Cl)c2)nc2cnn(CCN3CC(O)C3)c12 [Compound 70, 5-((3,4-Dichlorobenzyl)amino)-1-(2-(3-hydroxyazetidin-1-yl)ethyl)-1H-pyrazolo[4,3-d]pyrimidin-7(6H)-one hydrochloride] | > 64 | 64 | 16 | > 64 | 64 | 64 | 8 | > 64 | 
O=c1[nH]c(NCc2ccc(Cl)c(Cl)c2)nc2cnn(CCN3CCNCC3)c12 [Compound 74, 5-((3,4-dichlorobenzyl)amino)-1-(2-(piperazin-1-yl)ethyl)-1H-pyrazolo[4,3-d]pyrimidin-7(6H)-one] | > 64 | >64 | 8 (≈ 18.9 µM) | 16 (≈ 37.9 µM) | 64 (≈ 152 µM) | 64 (≈ 152 µM) | 16 (≈ 37.9 µM) | 32 (≈ 75.8 µM) | 
O=c1[nH]c(NCc2ccc(Cl)c(Cl)c2)nc2cnn(CC(O)CO)c12 (stereo not drawn) [Compound 75, 5-((3,4-dichlorobenzyl)amino)-1-(2,3-dihydroxypropyl)-1H-pyrazolo[4,3-d]pyrimidin-7(6H)-one] | > 64 | >64 | 8 (≈ 20.8 µM) | 8 (≈ 20.8 µM) | 16 (≈ 41.6 µM) | 16 (≈ 41.6 µM) | 4 (≈ 10.4 µM) | 16 (≈ 41.6 µM) | 
O=c1[nH]c(NCc2ccc(Cl)c(Cl)c2)nc2cnn(CCNCCn3ncc4nc(NCc5ccc(Cl)c(Cl)c5)[nH]c(=O)c43)c12 [Compound 78] | > 64 | >64 | 4 (≈ 5.8 µM) | 2 (≈ 2.9 µM) | 32 (≈ 46.4 µM) | 8 (≈ 11.6 µM) | 32 (≈ 46.4 µM) | 64 (≈ 92.8 µM) | 

Second part, the compound after the results:

MIC [1] [µg/mL] | MIC E. coli ATCC 25922 + 4 mM EDTA [1] [µg/mL] | MIC [2] [µg/mL] | MIC [3] [µg/mL] | MIC [4] [µg/mL] | MIC [5] [µg/mL] | MIC [6] [µg/mL] | MIC [7] [µg/mL] | MIC E. faecium ATCC 700221 (VRE) [3] | Structure (SMILES)
> 64 | >64 | 8 (≈ 22.6 µM) | 32 (≈ 90.6 µM) | 64 (≈ 181 µM) | 32 (≈ 90.6 µM) | 8 (≈ 22.6 µM) | 64 (≈ 181 µM) |  | NCCn1ncc2nc(NCc3ccc(Cl)c(Cl)c3)[nH]c(=O)c21 [Compound 63, 1-(2-Aminoethyl)-5-[(3,4-dichlorophenyl)methylamino]-6H-pyrazolo[4,3-d]pyrimidin-7-one]
> 64 | 64 | 2 | 2 | 8 | 4 | 4 | 8 |  | CC(=O)N1CCN(CCn2ncc3nc(NCc4ccc(Cl)c(Cl)c4)[nH]c(=O)c32)CC1.Cl [Compound 64, 1-(2-(4-Acetylpiperazin-1-yl)ethyl)-5-((3,4-dichlorobenzyl)amino)-1H-pyrazolo[4,3-d]pyrimidin-7(6H)-one hydrochloride]
> 64 | >64 | 8 | 16 | 32 | 16 | 8 | 32 |  | CN(C)C1CCN(CCn2ncc3nc(NCc4ccc(Cl)c(Cl)c4)[nH]c(=O)c32)CC1.Cl.Cl [Compound 67, 5-((3,4-Dichlorobenzyl)amino)-1-(2-(4-(dimethylamino)piperidin-1-yl)ethyl)-1H-pyrazolo[4,3-d]pyrimidin-7(6H)-one dihydrochloride]
> 64 | 64 | 1 |  | 4 | 4 | 4 | 4 | 4/2 | Cl.O=c1[nH]c(NCc2ccc(Cl)c(Cl)c2)nc2cnn(CCN3C[C@@H]4C[C@H]3CO4)c12 [Compound 68, 1-(2-((1 S,4S)-2-oxa-5-azabicyclo[2.2.1]heptan-5-yl)ethyl)-5-((3,4-dichlorobenzyl)amino)-1H-pyrazolo[4,3-d]pyrimidin-7(6H)-one hydrochloride]
> 64 | >64 | 4 | > 64 | 64 | 32 | 8 | 32 |  | CN1CC2CC1CN2CCn1ncc2nc(NCc3ccc(Cl)c(Cl)c3)[nH]c(=O)c21.Cl.Cl (stereo not drawn) [Compound 69, 5-((3,4-Dichlorobenzyl)amino)-1-(2-(5-methyl-2,5-diazabicyclo[2.2.1]heptan-2-yl)ethyl)-1H-pyrazolo[4,3-d]pyrimidin-7(6H)-one dihydrochloride]
> 64 | >64 | 4 | 16 | 64 | 32 | 4 | 32 |  | Cl.Cl.O=c1[nH]c(NCc2ccc(Cl)c(Cl)c2)nc2cnn(CCN3CCN(CCO)CC3)c12 [Compound 71, 5-((3,4-Dichlorobenzyl)amino)-1-(2-(4-(2-hydroxyethyl)piperazin-1-yl)ethyl)-1H-pyrazolo[4,3-d]pyrimidin-7(6H)-one dihydrochloride]
> 64 | >64 | 4 | 8 | 16 | 8 | 8 | 16 |  | CN(C)C(=O)C1CN(CCn2ncc3nc(NCc4ccc(Cl)c(Cl)c4)[nH]c(=O)c32)CCO1.Cl (stereo not drawn) [Compound 72, 4-(2-(5-((3,4-Dichlorobenzyl)amino)-7-oxo-6,7-dihydro-1H-pyrazolo[4,3-d]pyrimidin-1-yl)ethyl)-N,N-dimethylmorpholine-2-carboxamide hydrochloride]
> 64 | >64 | 4 | 8 | 16 | 16 | 8 | 16 |  | CN(C)CC1CN(CCn2ncc3nc(NCc4ccc(Cl)c(Cl)c4)[nH]c(=O)c32)CCO1.Cl.Cl (stereo not drawn) [Compound 73, 5-((3,4-Dichlorobenzyl)amino)-1-(2-(2-((dimethylamino)methyl)morpholino)ethyl)-1H-pyrazolo[4,3-d]pyrimidin-7(6H)-one dihydrochloride]
> 64 | >64 | 2 (≈ 5.65 µM) | 2 (≈ 5.65 µM) | 4 (≈ 11.3 µM) | 4 (≈ 11.3 µM) | 4 (≈ 11.3 µM) | 4 (≈ 11.3 µM) |  | O=c1[nH]c(NCc2ccc(Cl)c(Cl)c2)nc2cnn(CCO)c12 [Compound 76, 5-((3,4-dichlorobenzyl)amino)-1-(2-hydroxyethyl)-1H-pyrazolo[4,3-d]pyrimidin-7(6H)-one]
